Data taken from US20060154235A1, “Human hepatocyte-like cells and uses thereof” (Takahiro Ochiya, priority 2005, published 2006).

Tested on: CYP1A1
Test: P450-GLO activity assay, CYP1A1 induction in hMSC-derived hepatocytes
Settings: inducer for 2 days

With `Cc1ccc2cc3c(ccc4ccccc43)c3c2c1CC3` [3-methylcholanthrene] the “CYP1A1 activity after inducer treatment” value was “induced”.
